In patent US12351574B2, “Selective ligands for modulation of GIRK channels” (Northeastern University, priority 2018, dated 2025):

What was measured:
[1] = elevated plus maze (EPM); assay type: in vivo, rat; details: 30 mg/kg; vehicle group 30.6±4.4; trend
Experimental: Elevated plus maze (EPM): The EPM, as described previously was performed in a black Plexiglas apparatus (Hamilton Kinder, San Diego, CA) that consists of two open arms and two closed arms each 50.17 cm long and 10.8 cm wide. The closed arms have walls that are 40.01 cm high. The entire apparatus is elevated 100 cm above the ground on a square aluminum base. For a testing period of 5 min, anxiety is estimated by the amount of time rats spend in the closed versus open arms. Test sessions were video recorded by ceiling mounted cameras.

[2] = novel object recognition (NOR) test; assay type: in vivo, rat; details: 10 and 30 mg/kg
Experimental: Novel object recognition test (NORT): Novel object recognition test was performed in an open-field box measuring 100×100×20 cm as previously described. Prior to testing, the rats were allowed to explore the box for 5 min per day for 3 consecutive days with no objects present. Testing consisted of two 2 min trials. During a familiarization trial, two identical objects (plastic cylinders 6 cm in diameter and 12 cm tall in white and red) were placed in two adjacent corners. The animal was then released against the center of the opposite wall with its back to the objects. This was done to prevent coercion to explore the objects. The animals were regarded to be exploring when they were facing, sniffing, or biting the object with nose and/or forepaws. Immediately after familiarization, the rats received intraperitoneal (i.p.) injections of vehicle or ligands and were returned to its home cage. After a waiting period of 3 h (|T|=3 h), the rat was placed in the box again and test trial was performed. […] The times spent in exploring each object during both trials were recorded manually by using a stopwatch. […] Discrimination index (DI) was used to measure object recognition and is calculated as the difference in time exploring the novel (TN) versus familiar object (TF), then dividing this value by the total time spent exploring the two objects in the test trial. […]

In the case of `Cc1cc(NC(=O)Nc2ccc(Br)s2)n(-c2ccccc2)n1` [GAT1508, 1-(5-bromothiophen-2-yl)-3-(3-methyl-1-phenyl-1H-pyrazol-5-yl)urea], the “time spent on the open arm” value [1] is reported as 48.7 ± 8.3 s and the “discrimination index (in words)” value [2] is reported as “similar”.
